According to patent US9375000B2, “Pesticidal arylpyrrolidines” (Bayer Intellectual Property GmbH, priority 2011, dated 2016):

Columns and labels:
Type in all cases: in vivo
[1] = tested on: Thrips palmi; assay: Thrips palmi spray test (THRIPL); details: active compound concentration 20 ppm; after 6 days
Procedure: Unless not mentioned otherwise, the test solutions were prepared as follows:
Solvent: 3 parts by weight Dimethylformamide
Emulsifier: 1 part by weight Polyoxyethylene alkyl phenyl ether
In order to make an appropriate formulation of an active compound, 1 part by weight of the active compound is mixed with the above mentioned amount of solvent and emulsifier and the mixture is diluted with water to a prescribed concentration. Ammonium salt or ammonium salt and penetration enhancer in a dosage of 1000 ppm are added to the desired concentration if necessary.
The compound solutions are sprayed to a cucumber seedling (Cucumis sativus). After drying, the treated plant is placed in a plastic stand. About 100 thrips-eggs (Thrips palmi) on a piece of filter paper are attached to the plant and covered with a cage to keep 100% humidity. The plant is kept in a room at 23° C. After 6 days activity in % is evaluated by feeding damage degree. An insecticidal activity of 100 means that there was no feeding damage, whereas an insecticidal activity of 0% means that there is no difference to the untreated control.

[2] = tested on: Larvae of Spodoptera litura; assay: Larvae of Spodoptera litura, method using artificial feeds; details: artificial feed, after 7 days
Procedure, shortened: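 Compound formulated in dimethylformamide with polyoxyethylene alkyl phenyl ether emulsifier, water-diluted and poured onto artificial diet. Five 3rd-instar Spodoptera litura larvae per cup, held at 25° C and 50-60% humidity. Mortality after 7 days expressed as pesticidal ratio.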

[3] = tested on: Two-Spotted Spider Mite (Tetranychus urticae); assay: Two-spotted spider mite (Tetranychus urticae) spray test on kidney bean; details: after 7 days
Procedure, shortened: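 Kidney bean plants at the two-leaf stage carried 50-100 adult mites and were sprayed one day later with compound in DMF/polyoxyethylene alkyl phenyl ether diluted in water. Ammonium salt and penetration enhancer at 1000 ppm were added if needed. Acaricidal activity (% mites killed) was scored after 7 days in a greenhouse.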

[4] = tested on: Cucurbit Leaf Beetle (Aulacophora femoralis); assay: Cucurbit leaf beetle (Aulacophora femoralis) cucumber leaf dip test; details: after 7 days
Procedure, shortened: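 Cucumber leaves dipped in compound formulated with DMF and polyoxyethylene alkyl phenyl ether, diluted in water, with ammonium salt or ammonium salt plus penetration enhancer at 1000 ppm added if necessary; dried leaves placed on sterilized soil with five second-instar larvae. Kept at 25° C; larval mortality counted after 7 days.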

[5] = active compound concentration 4 ppm
[6] = active compound concentration 20 ppm

| SMILES | insecticidal activity (by feeding damage degree) [1] [%] | insecticidal activity (pesticidal ratio) [2, 5] [%] | acaricidal activity [3, 5] [%] | acaricidal activity [3, 6] [%] | insecticidal activity [4, 5] [%] | insecticidal activity [4, 6] [%] | insecticidal activity (pesticidal ratio) [2, 6] [%] |
| --- | --- | --- | --- | --- | --- | --- | --- |
| CCC(=O)NCc1cc(F)c(N2CCC(c3cc(Cl)c(Cl)c(Cl)c3)(C(F)(F)F)C2O)nc1Cl (stereo not shown) [A3-367] | 90 | 100 |  |  |  |  |  |
| CS(=O)(=O)CC(=O)NCc1ccc(N2CCC(c3cccc(C(F)(F)F)c3)(C(F)(F)F)C2O)nc1C(F)(F)F (racemic) [A3-231] | 90 | 80 | 100 | 100 | 100 | 100 |  |
| CS(=O)(=O)CC(=O)NCc1ccc(N2CCC(c3cc(Cl)cc(C(F)(F)F)c3)(C(F)(F)F)C2O)nc1C(F)(F)F (stereo not shown) [A3-275] | 98 | 100 | 100 | 100 | 100 | 100 | 100 |
| CS(=O)(=O)CC(=O)NCc1ccc(N2CCC(c3cc(Cl)cc(Cl)c3)(C(F)(F)F)C2O)nc1C(F)(F)F (stereo not shown) [A3-11] | 98 | 100 | 100 | 100 | 100 | 100 | 100 |
| CCC(=O)NCc1ccc(N2CCC(c3ccc(F)c(C(F)(F)F)c3)(C(F)(F)F)C2O)nc1C(F)(F)F (mixture of isomers) [A3-233] | 90 | 100 |  |  | 100 | 100 | 100 |
| O=C(CC(F)(F)F)NCc1ccc(N2CCC(c3cc(Cl)c(Cl)c(Cl)c3)(C(F)(F)F)C2O)nc1C(F)(F)F (stereo not shown) [A3-18] | 98 | 100 | 100 | 100 | 100 | 100 | 100 |
| O=C(CC1CC1)NCc1ccc(N2CCC(c3cc(Cl)cc(Cl)c3)(C(F)(F)F)C2O)nc1C(F)(F)F (stereo not shown) [A3-6] | 90 | 100 | 100 | 100 | 100 | 100 | 100 |
| CS(=O)(=O)CC(=O)NCc1cnc(N2CCC(c3cc(C(F)(F)F)cc(C(F)(F)F)c3)(C(F)(F)F)C2O)cc1C(F)(F)F (stereo not shown) [A5-33] | 90 | 100 |  | 98 | 100 | 100 | 100 |
| CC(=O)NCc1ccc(N2CCC(c3cc(C(F)(F)F)cc(C(F)(F)F)c3)(C(F)(F)F)C2O)cc1Br (stereo not shown) [A1-216] | 90 | 100 | 90 |  | 100 |  |  |
| O=C(NCc1ccc(N2CCC(c3cc(C(F)(F)F)cc(C(F)(F)F)c3)(C(F)(F)F)C2O)cc1C(F)(F)F)C1CC1 (mixture of isomers) [A1-60] | 98 | 100 |  | 100 | 100 |  |  |
| O=C(CC(F)(F)F)NCc1cnc(N2CCC(c3cc(Cl)c(Cl)c(Cl)c3)(C(F)(F)F)C2O)nc1C(F)F (stereo not shown) [A4-221] | 90 | 100 | 100 |  | 100 |  |  |
| O=C(NCc1ccc(N2CCC(c3cc(F)cc(C(F)(F)F)c3)(C(F)(F)F)C2O)cc1C(F)(F)F)C1CC1 (stereo not shown) [A1-319] | 90 | 100 | 100 | 100 | 100 | 100 | 100 |
| O=C(NCc1cnc(N2CCC(c3cc(Cl)c(Cl)c(Cl)c3)(C(F)(F)F)C2O)nc1C(F)F)C1CC1 (stereo not shown) [A4-219] | 90 | 100 | 100 |  | 100 |  |  |
| CCC(=O)NCc1ccc(N2CCC(c3cc(C(F)(F)F)cc(C(F)(F)F)c3)(C(F)(F)F)C2O)cc1Br (stereo not shown) [A1-217] | 90 | 100 | 100 |  | 100 |  |  |
| O=C(CC(F)(F)F)NCc1cnc(N2CCC(c3cc(C(F)(F)F)cc(C(F)(F)F)c3)(C(F)(F)F)C2O)cc1C(F)(F)F (stereo not shown) [A5-29] | 90 | 100 |  | 100 | 100 | 100 | 100 |
| CCC(=O)NCc1ccc(N2CCC(c3cc(Br)cc(Br)c3)(C(F)(F)F)C2O)cc1C(F)(F)F (stereo not shown) [A1-250] | 90 | 100 | 100 | 100 | 100 | 100 | 100 |
| O=C(NCc1ccc(N2CCC(c3cc(Cl)cc(Cl)c3F)(C(F)(F)F)C2O)nc1C(F)(F)F)C1CC1 (stereo not shown) [A3-348] | 90 | 100 | 100 |  | 100 |  |  |
| O=C(NCc1ccc(N2CCC(c3cc(C(F)(F)F)cc(C(F)(F)F)c3)(C(F)(F)F)C2O)cc1Br)C1CC1 (stereo not shown) [A1-220] | 90 | 100 | 100 |  | 100 |  |  |
| O=C(CC1CC1)NCc1ccc(N2CCC(c3cc(Cl)cc(C(F)(F)F)c3)(C(F)(F)F)C2O)nc1C(F)(F)F (mixture of isomers) [A3-270] | 90 | 100 | 100 | 100 | 100 | 100 | 100 |
| CC(C)C(=O)NCc1ccc(N2CCC(c3cc(Cl)c(Cl)c(Cl)c3)(C(F)(F)F)C2O)nc1C(F)(F)F (stereo not shown) [A3-15] | 90 | 100 | 100 | 100 |  |  | 100 |
| CC(=O)NCc1cc(F)c(N2CCC(c3cc(Cl)c(Cl)c(Cl)c3)(C(F)(F)F)C2O)nc1Cl (stereo not shown) [A3-366] | 98 | 100 |  |  |  |  |  |
| O=C(CC1CC1)NCc1ccc(N2CCC(c3cc(Cl)c(Cl)c(Cl)c3)(C(F)(F)F)C2O)nc1C(F)(F)F (stereo not shown) [A3-17] | 90 | 100 | 100 | 100 |  |  | 100 |
| CCC(=O)NCc1ccc(N2CCC(c3cc(Cl)cc(Cl)c3)(C(F)(F)F)C2O)cc1F (mixture of isomers) [A1-96] | 90 |  |  |  |  | 100 |  |
| C[S+]([O-])CC(=O)NCc1ccc(N2CCC(c3cc(C(F)(F)F)cc(C(F)(F)F)c3)(C(F)(F)F)C2O)nc1Br (mixture of isomers) [A3-164] |  | 100 |  | 98 | 100 | 100 | 100 |
| CS(=O)(=O)CC(=O)NCc1ccc(N2CCC(c3cc(Cl)c(Cl)c(Cl)c3)(C(F)(F)F)C2O)cc1C(F)(F)F (mixture of isomers) [A1-55] |  |  |  | 100 |  | 100 | 100 |
| CC(=O)NCc1ccc(N2CCC(c3cc(Cl)cc(Cl)c3F)(C(F)(F)F)C2O)cc1C(F)(F)F (stereo not shown) [A1-405] |  | 100 | 100 |  | 100 |  |  |
| Cc1nc(N2CCC(c3cc(C(F)(F)F)cc(C(F)(F)F)c3)(C(F)(F)F)C2O)ccc1CNC(=O)CC(F)(F)F (stereo not shown) [A3-128] |  |  |  | 100 |  | 100 | 100 |
| O=C(CC(F)(F)F)NCc1ccc(N2CCC(c3cc(Cl)cc(Cl)c3)(C(F)(F)F)C2O)cc1Cl (stereo not shown) [A1-7] |  |  |  | 100 |  | 100 | 100 |
